Assay results from US20120003661A1, “METHODS AND DEVICES FOR THE SELECTIVE DETECTION OF MICROORGANISMS” (C3 JIAN, INC., priority 2010, published 2012).
Entries after “also recorded” stand apart in the source; their conditions may differ.

system: bacteria, fungi, and/or yeasts; type: binding; conditions: microorganism(s) listed as target(s) of the targeting peptide; wrapped target lists given cell by cell

Row | Substance | Target(s)
1 | 1T-288 (RWVGGEPSADIYLSAKDTKT) | F. nucleatum, S. gordonii, S. salivarious,; also recorded: S. sanguinis
2 | PF-136 (LRGRVGRITACGYPP) | S. epidermidis, M. luteus, P. mirabilis,; also recorded: E. coli, MRSA, E. faecalis,; also recorded: C. jeikeium, C. jejuni, M. smegmatis
3 | PF-S024 (SKRGRKRKDRRKKKANHGKRPNS) | Corynebacteria spp.
4 | 1T-277 (IYYMRFVNKPLEKTFFKI) | A. naeslundii, F. nucleatum, P. gingivalis,; also recorded: T. denticola, S. gordonii,; also recorded: S. mitis, S. mutans, S. oralis,; also recorded: S. salivarious, S. sanguinis
5 | 1T-16 (IDMR) | yeast and hyphal forms
6 | PF-160 (SFHASLTKNEKPIKSTG) | S. epidermidis
7 | PF-156 (LITAEQPATAPIAGK) | S. epidermidis, C. jeikeium
8 | PF-137 (VLGKGHDLLDVGKTALKSRVFAWLGGS) | S. epidermidis, P. mirabilis, S. pneumoniae,; also recorded: C. jeikeium, C. jejuni
9 | PF-043 (MIKNETAYQMNELLVIRSAYAK) | M. luteus, C. jejuni
10 | 1T-269 (PLYVAAVEKINTAKKH) | F. nucleatum, S. mutans, S. oralis,; also recorded: S. sanguinis
11 | 1T-14 (ALAGLAGLISGK) | yeast and hyphal forms
12 | 1T-266 (RAGTWLVVDEIR) | S. sanguinis
13 | PF-023 (MTKNTIISLENEKTQINDSENESSDLRKAK) | M. luteus, C. jeikeium
14 | PF-046 (LDFYLTKHLTLML) | E. coli, E. faecalis, C. jeikeium
15 | PF-070 (SMVKSEIVDLLNGEDNDD) | S. epidermidis, C. jejuni
16 | PF-S018 (GMPQIPRLRI) | yeast and hyphal forms
17 | PF-009 (SKKYNHILNQENR) | yeast and hyphal forms; also recorded: M. luteus, P. mirabilis, C. albicans
18 | PF-025 (LLIIFRLWLELKWKNKK) | S. epidermidis, M. luteus, P. mirabilis,; also recorded: E. coli, P. aeruginosa,; also recorded: MRSA, E. faecalis, C. jejuni
19 | 1T-278 (SINSSAGIQPHCLSSSFVLRTKHCFY) | A. naeslundii, F. nucleatum, P. gingivalis,; also recorded: S. gordonii, S. mitis,; also recorded: S. mutans, S. oralis, S. salivarious,; also recorded: S. sanguinis
20 | PF-144 (RSGQPVGRPSRRAWLR) | S. epidermidis, M. luteus, E. coli,; also recorded: C. albicans, MRSA, S. pneumoniae,; also recorded: E. faecalis, C. jeikeium
21 | PF-617 (PMNAAEPE) | yeast and hyphal forms
22 | PF-028 (ALDCSEQSVILWYETILDKIVGVIK) | S. epidermidis, M. luteus, MRSA
23 | PF-154 (GIKKSKHPSTDDYVVKTTIDSL) | S. mutans
24 | PF-057 (TMIVISIPRFEEYMKARHKKWM) | S. epidermidis, M. luteus, P. mirabilis,; also recorded: E. coli, P. aeruginosa,; also recorded: C. albicans, MRSA, S. pneumoniae,; also recorded: E. faecalis, C. jeikeium,; also recorded: C. jejuni
25 | 1T-296 (EYSQQSFKAKPCSERGVLSP) | A. naeslundii, F. nucleatum, P. gingivalis,; also recorded: S. gordonii, S. mitis,; also recorded: S. mutans, S. oralis, S. salivarious,; also recorded: S. sanguinis
26 | PF-044 (KLKKYIHKPD) | S. epidermidis, M. luteus, MRSA,; also recorded: C. jeikeium
27 | 1T-299 (SMLTSFLRSKNTRSLKMYKDVHF) | A. naeslundii, F. nucleatum, S. epidermidis,; also recorded: S. gordonii, S. mitis,; also recorded: S. mutans, S. oralis, S. salivarious,; also recorded: S. sanguinis
28 | Rv3760 (GLITVFAGTARILQLRRAAKKTHAAALR) | C. albicans
29 | PF-123 (TTRPQVAEDRQLDDALKETFPASDPISP) | M. luteus, E. coli

same assay, conditions: microorganism(s) that the targeting peptide binds, as listed in Table 2

Row | Substance | Target(s)
30 | PF-C143 (VVFGGGDRLV) | A. naeslundii, F. nucleatum, P. gingivalis,; also recorded: S. mutans, T. denticola
31 | PF-C086 (ELFFTILSDCNELFLLHLLQQPLFYIKKGK) | A. naeslundii, F. nucleatum, P. gingivalis,; also recorded: S. mutans, T. denticola
32 | PF-C120 (ASLSTMTFKVMELKELIILLCGLTMLMIQTEFV) | A. naeslundii, F. nucleatum, P. gingivalis,; also recorded: S. mutans, T. denticola
33 | PF-C142 (DFPPLSFFRRRFHAYTAPIDNFFGANPF) | A. naeslundii, F. nucleatum, P. gingivalis,; also recorded: S. mutans, T. denticola
34 | PF-S018 (GMPQIPRLRI) | S. epidermidis, M. luteus, C. albicans,; also recorded: MRSA, E. faecalis, C. jeikeium,; also recorded: C. jejuni
35 | PF-792 (ALHASGIQAI) | S. mutans
36 | PF-C259 (AEIQPHCLSVL) | F. nucleatum, S. mutans
37 | PF-C050 (QGLARPVLRRIPL) | A. naeslundii, S. mutans
38 | PF-X (TFFRLFNRSFTQALGK) | S. mutans

same assay, conditions: microorganism(s) the targeting peptide binds, as listed in Table 2

Row | Substance | Target(s)
39 | 1T-225 (RRSLGNSASFAEWIEYIRYLHYIIRVQFIHFFSKNKKI) | A. naeslundii, F. nucleatum, P. gingivalis,; also recorded: S. epidermidis, S. gordonii,; also recorded: S. mitis, S. mutans, S. oralis,; also recorded: S. salivarious, S. sanguinis
40 | 1T-248 (IGGALNSCG) | S. sanguinis
41 | 1T-12 (FGNIFKGLKDVIETIVKWTAAK) | C. xerosis, C. striatum, S. epidermidis,; also recorded: S. mutans
42 | 1T-166 (AQSAGQIKRKSKVRIHV) | A. naeslundii, F. nucleatum, P. gingivalis,; also recorded: S. epidermidis, S. gordonii,; also recorded: S. mitis, S. mutans, S. oralis,; also recorded: S. salivarious, S. sanguinis
43 | 1T-16 (IDMR) | P. aeruginosa
44 | 1T-139 (AVAGAAVGALLGNDARSTAVGAAIGGALGAGAGELTKNK) | A. naeslundii, S. gordonii, S. mitis,; also recorded: S. mutans, S. oralis
45 | 1T-14 (ALAGLAGLISGK) | S. mutans, S. aureus, S. epidermidis,; also recorded: C. xerosis
46 | 1T-200 (MRFKRFDRDYALSGDNVFEVLTASCDVIERNLSYREMCGLMQ) | A. naeslundii, F. nucleatum, S. epidermidis,; also recorded: S. gordonii, S. mitis,; also recorded: S. mutans, S. oralis, S. salivarious,; also recorded: S. sanguinis
47 | 1T-109 (VTTNVRQGAGS) | A. naeslundii, S. epidermidis, S. gordonii,; also recorded: S. mitis, S. mutans, S. oralis,; also recorded: S. salivarious, S. sanguinis
48 | 1T-106 (DALRRSRSQGRRHR) | S. gordonii, S. mitis, S. mutans,; also recorded: S. oralis, S. salivarious
49 | 1T-120 (DVRDRVDLAGADLCAAHATR) | A. naeslundii, F. nucleatum, P. gingivalis,; also recorded: S. epidermidis, S. gordonii,; also recorded: S. mitis, S. mutans, S. oralis,; also recorded: S. salivarious, S. sanguinis
50 | 1T-55 (NHKTLKEWKAKWGPEAVESWATLLG) | C. xerosis, P. aeruginosa
51 | 1T-197 (TEILNFLITVCADRENWKIKHGLSDSVLLIFFARFTGAEYW) | A. naeslundii, F. nucleatum, P. gingivalis,; also recorded: S. epidermidis, S. gordonii,; also recorded: S. mitis, S. mutans, S. oralis,; also recorded: S. salivarious, S. sanguinis
52 | 1T-124 (LFDERNKIA) | S. mitis, S. mutans, S. oralis
53 | 1T-108 (WGPLGPERPLW) | S. gordonii, S. mitis, S. mutans,; also recorded: S. oralis, S. salivarious, S. sanguinis
54 | 1T-223 (NQKMEINSMTSEKEKMLAGHFHNEANFAVIFKYSLFYNFF) | A. naeslundii, F. nucleatum, P. gingivalis,; also recorded: S. epidermidis, S. gordonii,; also recorded: S. mitis, S. mutans, S. oralis,; also recorded: S. salivarious, S. sanguinis

Row | Substance | Target(s)
55 | 1T-199 (RAGRIKKLSQKEAEPFEN) | S. sanguinis
56 | 1T-153 (YIACPGYFY) | A. naeslundii, F. nucleatum, P. gingivalis,; also recorded: S. epidermidis, S. gordonii,; also recorded: S. mitis, S. mutans, S. oralis,; also recorded: S. salivarious, S. sanguinis
57 | 1T-242 (KQVQNTTLIICGTVLLGILFKSYLKSQKSV) | F. nucleatum, S. sanguinis
58 | 1T-136 (ELLTQIRLALLYSVNEW) | A. naeslundii, F. nucleatum, P. gingivalis,; also recorded: S. epidermidis, S. gordonii,; also recorded: S. mitis, S. mutans, S. oralis,; also recorded: S. salivarious, S. sanguinis
59 | 1T-168 (ELHRIMSTEKIGAVTKMNFDTAPIMSILPIDIYPKEVGIGS) | A. naeslundii, F. nucleatum, P. gingivalis,; also recorded: S. epidermidis, S. gordonii,; also recorded: S. mitis, S. mutans, S. oralis,; also recorded: S. salivarious, S. sanguinis
60 | 1T-118 (TASPPAPSDQGLRTAFPATLLIALAALARISR) | A. naeslundii, F. nucleatum, P. gingivalis,; also recorded: S. epidermidis, S. gordonii,; also recorded: S. mitis, S. mutans, S. oralis,; also recorded: S. salivarious, S. sanguinis
61 | 1T-37 (YIVGALVILAVAGLIYSMLRKA) | S. mutans, S. aereus, S. epidermidis,; also recorded: C. jeikeium, C. xerosis,; also recorded: C. striatum, P. aeruginosa
62 | 1T-185 (HYHFLLEFGFHKGDYLE) | A. naeslundii, F. nucleatum, P. gingivalis,; also recorded: T. denticola, S. gordonii,; also recorded: S. mitis, S. mutans, S. oralis,; also recorded: S. salivarious, S. sanguinis
63 | 1T-221 (DIGRIIGKKGRTITAIRSIVYSVPTQGKKVRLVIDEK) | A. naeslundii, F. nucleatum, P. gingivalis,; also recorded: S. epidermidis, S. gordonii,; also recorded: S. mitis, S. mutans, S. oralis,; also recorded: S. salivarious, S. sanguinis
64 | 1T-183 (PLRSFVAEKAEHAFRVVRIADFDFGHS) | A. naeslundii, F. nucleatum, P. gingivalis,; also recorded: S. epidermidis, S. gordonii,; also recorded: S. mitis, S. mutans, S. oralis,; also recorded: S. salivarious, S. sanguinis
65 | 1T-71 (KIDTNQWPPNKEG) | P. aeruginosa
66 | 1T-129 (YDKYIKYLSIQPPFIVYFI) | A. naeslundii, P. gingivalis, S. epidermidis,; also recorded: S. gordonii, S. mitis,; also recorded: S. mutans, S. oralis, S. salivarious,; also recorded: S. sanguinis
67 | 1T-179 (TCYPLIQRKTDRAYEA) | A. naeslundii, F. nucleatum, P. gingivalis,; also recorded: T. denticola, S. gordonii,; also recorded: S. mitis, S. mutans, S. oralis,; also recorded: S. salivarious, S. sanguinis
68 | 1T-121 (FAKETGFGIGGAQEGWWIIADIYGPNPF) | S. gordonii, S. mitis, S. mutans,; also recorded: S. oralis, S. salivarious, S. sanguinis
69 | 1T-53 (SDILAEMFEKGELQTLVKDAAAKANA) | P. aeruginosa
70 | 1T-149 (SVRAVKPIDETVARHFPGDFIVN) | A. naeslundii, F. nucleatum, P. gingivalis,; also recorded: T. denticola, S. gordonii,; also recorded: S. mitis, S. mutans, S. oralis,; also recorded: S. salivarious, S. sanguinis
